Experiments:
[1] = test system: Solenopsis invicta worker ants; test: Laboratory virulence test of the combination of Beauveria bassiana and sodium chloride (Embodiment 1 method); type: in vivo; settings: for synergism / effect on the pesticidal effect of Beauveria bassiana: salt added to Beauveria bassiana solution instead of sodium chloride, Embodiment 1 test
Description: In the laboratory virulence test, 5 g of Beauveria bassiana powder formulation was dissolved in 1 L of water and mixed well to give a Beauveria bassiana solution. The used Beauveria bassiana powder formulation contained 20 billion/g of Beauveria bassiana spores. 9 Beauveria bassiana solutions, 100 mL each, were taken from the IL Beauveria bassiana solution, and respectively added with NaCl so that NaCl concentrations in the 9 Beauveria bassiana solutions were: 0 mmol/L, 25 mmol/L, 75 mmol/L, 100 mmol/L, 125 mmol/L, 150 mmol/L, 200 mmol/L, 250 mmol/L, and 300 mmol/L, and thereby Beauveria bassiana/sodium chloride aqueous dispersions were obtained, wherein the Beauveria bassiana spores were present in a concentration of 1×10^8/mL.
The Beauveria bassiana solution, the Beauveria bassiana/sodium chloride aqueous solution, a sodium chloride solution (125 mmol/L), and sterile water were respectively tested for virulence against healthy Solenopsis invicta worker ants, with 3 replicates for each treatment, 1 petri dish in each replicate, and 100 Solenopsis invicta worker ants in each petri dish. […] Data statistical analysis was performed using SPSS 13.0 software, significance testing between samples was performed using the Duncan's method, wherein different lowercase letters indicate a significant difference (P<0.05) in cumulative mortality of the treated Solenopsis invicta.

[2] = test system: Solenopsis invicta worker ants; test: Laboratory virulence test of the Beauveria bassiana/sodium chloride aqueous dispersion of water dispersible granule formulation (with adjuvants); type: in vivo; settings: worker ants dipped about 5 seconds, 96 hours after treatment, 1×10^8/mL spores, NaCl alone 125 mmol/L, FIG. 2
Description: A totally 30 g of Beauveria bassiana powder formulation and sodium chloride (wherein a mass ratio of the Beauveria bassiana powder formulation to sodium chloride included 5:1.46, 5:4.38; 5:5.84, 5:7.30, 5:8.77, 5:11.69, 5:14.61 g, and 5:17.53, and the Beauveria bassiana powder formulation contained 20 billion Beauveria bassiana spores per gram), 8 g of wetting agent butylnaphtalenesulfonic acid sodium salt, 18 g of dispersant sodium lignosulfonate, 5 g of disintegrant calcium chloride, 2 g of stabilizer disodium hydrogen phosphate, 5 g of binder sodium polyacrylate, and 32 g of carrier diatomite, were weighed out and mixed according to a method for preparing a water dispersible granule formulation (1. The raw materials were mixed evenly according to the formula. 2. The materials were ground using a sand mill after mixed evenly, and subjected to spray granulation after determined to be acceptable. 3. The products were screened using a vibrating screen after the spray granulation, products with unacceptable appearance were returned to the sand mill to be ground again, and products with acceptable appearance were further subjected to quality inspection wherein products with unacceptable quality were also returned to the sand mill to be ground again. 4. Products with acceptable quality were packaged. 5. […]

[Cl-].[Cl-].[Mg+2] [magnesium chloride]
synergism / effect on the pesticidal effect of Beauveria bassiana [1]: no significant difference

[Cl-].[K+] [potassium chloride]
synergism / effect on the pesticidal effect of Beauveria bassiana [1]: no significant difference

[Ca+2].[Cl-].[Cl-] [calcium chloride]
synergism / effect on the pesticidal effect of Beauveria bassiana [1]: no significant difference

[Cl-].[Na+] [NaCl, sodium chloride]
96 h cumulative mortality / pesticidal effect [2]: no killing effect | 96 h cumulative mortality / pesticidal effect ([1]; worker ants dipped about 5 seconds, 96 hours after treatment, 1×10^8/mL spores, NaCl alone 125 mmol/L, no adjuvants, FIG. 1): no killing effect

[Cl][Fe]([Cl])[Cl] [ferric chloride]
synergism / effect on the pesticidal effect of Beauveria bassiana [1]: no significant difference
